Data on 1 molecule can be found in patent publication US11884905B2, “Fluidic chip for cell culture use, culture vessel, and culture method” (University Public Corporation Osaka, priority 2017, dated 2024).

Holding throughout (type): cell-based
Details in all cases: culture solution containing 20 μM doxorubicin, 24 hours, optical microscope

The subject of data set [1] is human hepatoma-derived cells. The experiment in a line: Fluidic chip three-dimensional culture with doxorubicin, hepatoma cells (upstream). How it is done: (§1) Cardiac toxicity known as efficacy and side effect of doxorubicin widely used as an anticancer drug was assessed using the fluidic chip for cell culture use according to the present invention.
(§2) First, five culture vessels 9a each enclosing human hepatoma-derived cells were manufactured, three culture vessels 9b each enclosing human umbilical vein endothelial cells were manufactured, three culture vessels 9c each enclosing human myocardial cells were manufactured, three culture vessels 9d each enclosing human bronchial epithelial cells were manufactured, and three culture vessels 9e each enclosing human fibroblast cells were manufactured. These culture vessels 9a to 9e were subjected to preparatory culture (cultured in three dimensions) for two days in wells 33 of the multi-well plate 32, respectively. The culture vessels were manufactured in the same manner as in the cell culture experiment (1), except that the kinds of the cells to be cultured were changed. FIG. 15 illustrates the photograph of the multi-well plate 32 after the preparatory culture.
(§3) Thereafter, the culture vessels 9a to 9e were set on an optical microscope, and the cultured cells were observed. […] Then, sample cells in good condition in shape were only extracted. […]

The test system of data set [2] is human myocardial cells. In words: Fluidic chip three-dimensional culture with doxorubicin, cardiac toxicity on myocardial cells downstream of hepatoma cells. How it is done:
as §1, §2, §3

Data set [3] relates to human bronchial epithelial cells. In words: Fluidic chip three-dimensional culture with doxorubicin, bronchial epithelial cells downstream of hepatoma cells (control). As to the method: as §1, §2, §3
For data set [4], the system named is human fibroblast cells. In words: Fluidic chip three-dimensional culture with doxorubicin, fibroblast cells downstream of hepatoma cells (control). As to the method:
as §1, §2, §3

On to `COc1cccc2c1C(=O)c1c(O)c3c(c(O)c1C2=O)C[C@@](O)(C(=O)CO)C[C@@H]3O[C@H]1C[C@H](N)[C@H](O)[C@H](C)O1` [doxorubicin], for which the “change in shape of hepatoma cells (infiltrating portions), efficacy as anticancer drug” value in data set [1] is given as “the infiltrating portions disappear within twenty-four hours”. Besides, the “change in shape of myocardial cells (cardiac toxicity)” value in data set [2] is reported as “entirely reduced in size”. In addition, the “change in shape / growth of bronchial epithelial cells” value in data set [3] was “a branch of a bronchus was wide and continued to grow”. For the same molecule, the “change in shape / growth of fibroblast cells” value in data set [4] was “the fibroblast cells continued to grow”.
